Results from patent US10947223B2, “Substituted oxazines as beta-secretase inhibitors” (AMGEN INC., priority 2016, dated 2021).

Key:
human recombinant BACE2 = human recombinant BACE2 (Homo sapiens (Human), UniProt Q9Y5Z0); test: In vitro enzymatic BACE2 FRET assay; format: biochemical; details: pH 4.5, read-out: BACE2 Enzyme IC50
Description: (§1) In Vitro Enzymatic BACE1 and BACE2 FRET (Fluorescence Resonance Energy Transfer) Assays
(§2) The cDNAs for both human recombinant BACE1 and 2 with C-terminal 6-His Tags were cloned into transient protein expression vectors, which were subsequently transfected into mammalian cell lines. These recombinant proteins were further purified using Ni-NTA affinity chromatography (Qiagen). The assay buffer used in these screens was 0.05 M acetate, pH 4.5, 8% DMSO final, 100 μM genapol (which is a nonionic detergent, below its Critical Micelle Concentration). The β-secretase enzyme (0.02 nM for BACE1 and 0.64 nM for BACE2), which was pre-incubated for one hour with the test compound, typically in about 1 uL of DMSO according to a serial dilution, was added thereto. The assay was effectively started by the addition of FRET substrate (50 nM) and the combination was incubated for one hour. The FRET assay was terminated by the addition of tris buffer, which raised the pH to neutrality, and the fluorescence was determined. The FRET substrate was a peptide with commercially available fluorophore and quencher, on opposite sides of the BACE cleavage site. The specific FRET substrate used in this assay was made by Amgen in-house. Commercially available FRET substrates, for example, the FRET substrate offered with the BACE1 FRET Assay Kit sold by ThermoFisher Scientific (Catalog Number P2985), may be used in this assay with the appropriate modifications, which are within the purview of the ability of a person with ordinary skill in the art. Proteolytic cleavage of the FRET substrate released quenching of fluorescence (excitation 488 nm and emission 590 nm).

BACE1 [1] = molecular target: T1, BACE1 (Homo sapiens (Human), UniProt P56817); test: In vitro BACE1 cell-based assay (Aβ40 in conditioned medium, HTRF); details: Aβ40 in conditioned medium of cells expressing APP, 24 h
Description: In Vitro BACE1 Cell-Based Assay
The cell-based assay measures inhibition or reduction of Aβ40 in conditioned medium of test compound treated cells expressing amyloid precursor protein. Cells stably expressing Amyloid Precursor Protein (APP) were plated at a density of 45K cells/well in 384 well plates (Corning/BioCoat 354663). The test compounds were then added to cells in 22-point dose response concentrations with the starting concentration being 62.5 μM. The compounds were diluted from stock solutions in DMSO and the final DMSO concentration of the test compounds on cells was 0.625%. The cells were cultivated overnight at 37° C. and 5% CO2 in DMEM supplemented with 10% FBS. After 24 h of incubation with the test compounds, the conditioned media was collected and the Aβ40 levels were determined using HTRF (Homogeneous Time Resolved Fluorescence). The IC50 of the compound was calculated from the percent of control or percent inhibition of Aβ 40 as a function of the concentration of the test compound.
The HTRF to detect Aβ40 was performed in 384 well plates (Costar 3658). The antibody pair that were used to detect Aβ 40 from cell supernatants were ConfAb40 antibody (Amgen in-house) and biotinylated 6E10 (BIOLEGEND). As an alternative to ConfAb40, a commercially available antibody, Anti-beta Amyloid 1-40 antibody [BDI350] from Abcam, Cambridge, Mass. 02139-1517 (Product code: ab20068), may be used in this assay. The concentrations were 0.35 μg/mL of ConfAb40 antibody and 1.33 μg/mL of 6E10-biotinylated antibody, as well as 4.5 μg/mL of Streptavidin Allophycocyanin Conjugate (ThermoFisher Scientific) in HTRF Buffer ([…], 1% BSA, 0.5% Tween 20).
The conditioned media was incubated with above antibodies and Streptavidin Allophycocyanin Conjugate for 30-60 minutes at 23° C. The final readout was performed on Envision from PerkinElmer.
Target sequence in this assay (P56817 46-501, species assumed): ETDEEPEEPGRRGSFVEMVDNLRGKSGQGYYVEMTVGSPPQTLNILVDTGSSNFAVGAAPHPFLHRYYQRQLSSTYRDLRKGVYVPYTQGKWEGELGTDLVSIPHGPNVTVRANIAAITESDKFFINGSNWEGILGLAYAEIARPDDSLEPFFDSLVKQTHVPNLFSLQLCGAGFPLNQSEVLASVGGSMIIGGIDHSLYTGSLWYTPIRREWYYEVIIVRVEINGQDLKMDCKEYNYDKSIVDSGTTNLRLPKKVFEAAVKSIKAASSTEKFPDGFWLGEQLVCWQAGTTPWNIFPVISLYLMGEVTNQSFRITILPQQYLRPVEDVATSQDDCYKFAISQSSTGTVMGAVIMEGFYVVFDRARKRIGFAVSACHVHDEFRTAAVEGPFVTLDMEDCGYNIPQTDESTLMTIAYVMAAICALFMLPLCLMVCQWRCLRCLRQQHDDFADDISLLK

Recombinant CatD = Recombinant CatD (Homo sapiens (Human), UniProt P07339); test: In vitro enzymatic Cathepsin D (CatD) FRET assay; format: biochemical; details: pH 3.5, read-out: CatD Enzyme IC50
Description: In Vitro Enzymatic Cathepsin D (CatD) FRET Assay
Recombinant CatD was expressed in CHO cells. The assay buffer for CatD was 0.05 M citrate pH 3.5, 10% DMSO final, 5 mM CHAPS. The CatD enzyme (9 nM) was pre-incubated for one hour with inhibitors, typically in about 1 uL of DMSO according to a serial dilution, is added thereto. The assays was effectively started by the addition of different FRET substrates (20 nM for CatD) and the combination was incubated for one hour. The FRET assay was terminated with by addition of tris buffer, which raises the pH to neutrality, and the fluorescence was determined. The FRET substrate was a peptide with commercially available fluorophore and quencher, on opposite sides of the CatD cleavage site. The CatD substrate peptide sequence was based on sequence #1 of Table 1 from Gulnik et al., FEBS Lett. 413(2):379-384 (1997). Proteolytic cleavage of the FRET substrate released quenching of fluorescence (CatD excitation 500 nm and emission 580 nm).
The in vitro CatD FRET assay data for each of the Examples is provided in Table 2, conducted by the first procedure described above. […] Thus, with this surprising selectivity profile, the compounds provided herein are believed to minimize, reduce or completely eliminate any risk of retinal atrophy and abnormal development of the eye and of the retinal pigmented epithelium as it relates to the normal function and activity of CatD.

BACE1 [2] = molecular target: T1, BACE1; test: In vitro enzymatic BACE1 FRET assay; format: biochemical; details: pH 4.5, read-out: BACE1 Enzyme IC50
Description: as §1, §2
Target sequence in this assay (P56817 46-501): as the sequence (P56817 46-501, species assumed) above

[3] = repeated doses up to 200 mg, phase I clinical trial; cited from earlier work
Aβ peptide [4] = details: nonhuman primates; cited from earlier work
[5] = in vivo; cited from earlier work
Aβ peptide [6] = details: oral dose of 95 mg once daily; cited from earlier work
[7] = tested on: pigment epithelium of the rat's eye; details: higher compound dose given for three months; cited from earlier work
Aβ peptide [8] = details: sustained and dose-dependent manner; cited from earlier work
[9] = phase I clinical trials; cited from earlier work

Recombinant CatD, sequence (P07339 65-412): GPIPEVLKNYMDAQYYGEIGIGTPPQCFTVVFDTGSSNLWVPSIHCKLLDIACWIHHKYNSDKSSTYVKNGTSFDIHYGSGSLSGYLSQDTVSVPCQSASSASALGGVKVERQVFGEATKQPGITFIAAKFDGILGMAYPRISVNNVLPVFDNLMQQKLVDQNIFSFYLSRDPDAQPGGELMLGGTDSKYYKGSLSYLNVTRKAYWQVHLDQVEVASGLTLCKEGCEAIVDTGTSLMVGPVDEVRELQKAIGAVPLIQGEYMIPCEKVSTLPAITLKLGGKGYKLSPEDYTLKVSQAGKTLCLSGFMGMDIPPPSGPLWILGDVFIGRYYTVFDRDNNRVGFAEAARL
human recombinant BACE2, sequence (Q9Y5Z0 63-518): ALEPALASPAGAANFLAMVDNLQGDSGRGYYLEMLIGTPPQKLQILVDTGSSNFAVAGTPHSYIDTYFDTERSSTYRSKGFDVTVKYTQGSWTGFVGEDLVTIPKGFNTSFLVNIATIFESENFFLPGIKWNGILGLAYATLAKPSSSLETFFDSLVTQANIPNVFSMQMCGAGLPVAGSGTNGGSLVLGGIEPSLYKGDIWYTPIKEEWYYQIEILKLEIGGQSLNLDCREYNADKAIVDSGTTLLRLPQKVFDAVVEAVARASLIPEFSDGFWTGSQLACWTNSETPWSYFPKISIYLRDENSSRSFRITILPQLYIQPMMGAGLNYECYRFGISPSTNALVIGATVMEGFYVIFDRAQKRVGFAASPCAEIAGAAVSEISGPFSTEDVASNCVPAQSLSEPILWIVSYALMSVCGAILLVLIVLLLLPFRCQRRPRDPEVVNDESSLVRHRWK

IC50 (human recombinant BACE2) [nM] | IC50 (BACE1 [1]) [nM] | IC50 (Recombinant CatD) [nM] | IC50 (BACE1 [2]) [nM] | SMILES | other results
2730 | 2660 | > 400000 | 256 | C[C@]1(c2cc(/C=C(\F)c3ccc(C#N)cn3)ccc2F)N=C(N)OCC1(F)F [Example 114, (R,Z)-6-(2-(3-(2-amino-5,5-difluoro-4-methyl-5,6-dihydro-4H-1,3-oxazin-4-yl)-4-fluorophenyl)-1-fluorovinyl)nicotinonitrile] | –
11400 | 676 | > 400000 | 1050 | C[C@]1(c2nc(/C=C(\F)c3ccc(C#N)cn3)ccc2F)N=C(N)OCC1(F)F [Example 116, (R,Z)-6-(2-(6-(2-amino-5,5-difluoro-4-methyl-5,6-dihydro-4H-1,3-oxazin-4-yl)-5-fluoropyridin-2-yl)-1-fluorovinyl)nicotinonitrile] | –
853 | 90 | 121000 | 149 | C[C@@]1(c2nc(/C=C(\F)c3ccc(C#N)cn3)ccc2F)CO[C@@](C)(C(F)(F)F)C(N)=N1 [Example 117, 6-((Z)-2-(6-((3R,6R)-5-amino-3,6-dimethyl-6-(trifluoromethyl)-3,6-dihydro-2H-1,4-oxazin-3-yl)-5-fluoropyridin-2-yl)-1-fluorovinyl)nicotinonitrile] | –

Further lines, the compound ahead of its results:

SMILES | IC50 (human recombinant BACE2) [nM] | IC50 (BACE1 [1]) [nM] | IC50 (Recombinant CatD) [nM] | IC50 (BACE1 [2]) [nM] | other results
C#CCOc1cnc(/C(F)=C/c2ccc(F)c([C@@]3(C)N=C(N)OCC3(F)F)c2)cn1 [Example 115, (R,Z)-5,5-difluoro-4-(2-fluoro-5-(2-fluoro-2-(5-(prop-2-yn-1-yloxy)pyrazin-2-yl)vinyl)phenyl)-4-methyl-5,6-dihydro-4H-1,3-oxazin-2-amine] | 5840 | 4660 | 119000 | 283 | –
C[C@H]1OC[C@]2(c3cc(NC(=O)c4cnc(C(F)F)cn4)ccc3F)N=C(N)SC[C@H]12 [Example E2609] | – | – | – | – | clinical safety [3]: did not show clinical significant safety concerns; reduction in Aβ peptide levels in the CSF and plasma (Aβ peptide [4]): significant reduction
C[C@@]1(c2cc(NC(=O)c3ccc(C#N)cn3)ccc2F)C=CSC(N)=N1 [JNJ-54861911] | – | – | – | – | ability to cross the blood-brain barrier [5]: demonstrated an ability to cross the blood-brain barrier; Aβ peptide reduction in CSF (Aβ peptide [6]): up to 95%
C[C@@]1(c2cc(-c3cncnc3)c(F)cc2F)CCSC(N)=N1 [LY 2811376] | – | – | – | – | eye toxicity finding [7]: damaged the pigment epithelium of the rat's eye
CN1C(=N)N[C@](C)(c2cc(NC(=O)c3ccc(F)cn3)ccc2F)CS1(=O)=O [MK-8931] | – | – | – | – | CSF Aβ peptide concentrations (Aβ peptide [8]): significantly reduced CSF Aβ peptide concentrations; safety profile [9]: excellent safety profile with no immediately noticeable side effects
